Data: ChEMBL document CHEMBL1201862, “PubChem BioAssay data set” (2004)
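Where inhibition never reached the appropriate level, the endpoint shown equals the highest concentration tested. Otherwise, values were interpolated linearly from a five-concentration, 48-hour dose response in 96-well plates. GI50 = concentration required for 50% inhibition of growth.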 The source made the active and inactive calls. Rule as the data show it: active = GI50 up to about 1.1 µM and inactive = higher.

How the values were obtained:
Assay in all cases: inhibition of tumour cell growth, NCI panel, 48 h
RXF 393 = test system: RXF 393
SK-OV-3 = test system: SK-OV-3
XF498 = test system: XF498
EKVX = test system: EKVX
HOP-92 = test system: HOP-92
A498 = test system: A498
RPMI-8226 = test system: RPMI-8226
NCI-H226 = test system: NCI-H226
HT-29 = test system: HT-29
UACC-257 = test system: UACC-257
HCT-15 = test system: HCT-15
OVCAR-8 = test system: OVCAR-8
U-251 = test system: U-251
786-0 = test system: 786-0
DU-145 = test system: DU-145
Hs-578T = test system: Hs-578T
BT-549 = test system: BT-549
MCF7 = test system: MCF7
NCI/ADR-RES = test system: NCI/ADR-RES
MDA-N = test system: MDA-N

Structure (SMILES) | GI50 (RXF 393) | GI50 (SK-OV-3) | GI50 (XF498) | GI50 (EKVX) | GI50 (HOP-92) | GI50 (A498) | GI50 (RPMI-8226) | GI50 (NCI-H226) | GI50 (HT-29) | GI50 (UACC-257) | GI50 (HCT-15) [µM] | GI50 (OVCAR-8) | GI50 (U-251) | GI50 (786-0) | GI50 (DU-145) | GI50 (Hs-578T) | GI50 (BT-549) | GI50 (MCF7) | GI50 (NCI/ADR-RES) | GI50 (MDA-N)
COc1ccc(CC(C)N)cc1 (configuration not stated) [PARA-METHOXYAMPHETAMINE] | > 100 µM (inactive) | > 100 µM (inactive) | > 100 µM (inactive) | > 100 µM (inactive) | > 100 µM (inactive) | > 100 µM (inactive) | > 100 µM (inactive) | > 100 µM (inactive) | > 100 µM (inactive) | > 100 µM (inactive) | > 100 | > 100 µM (inactive) | > 100 µM (inactive) | > 100 µM (inactive) |  |  |  |  |  | 
CCOc1ccc(/N=C/c2ccnc3ccccc23)cc1 | > 96.6 µM (inactive) | 67.8 µM (inactive) | > 100 µM (inactive) | > 93.1 µM (inactive) | 49.8 µM (inactive) | > 100 µM (inactive) | 6.53 µM (inactive) | 73.6 µM (inactive) | 27.3 µM (inactive) | 98.6 µM (inactive) | 11.5 | 21.2 µM (inactive) | 32.7 µM (inactive) | 57.1 µM (inactive) | 60.3 µM (inactive) | 40.4 µM (inactive) | 34.4 µM (inactive) | 5.98 µM (inactive) | 35.9 µM (inactive) | 30.1 µM (inactive)
CCC1(O)C(=O)OCc2c1cc1n(c2=O)Cc2cc3ccc(C=O)cc3nc2-1 (configuration not stated) | 2.2 µM (inactive) | 2.2 µM (inactive) | 2.7 µM (inactive) | 19.1 µM (inactive) | 11.1 µM (inactive) | 4.06 µM (inactive) | 2.79 µM (inactive) | 1.58 µM (inactive) | 4.9 µM (inactive) | 6.19 µM (inactive) | 6.08 | 1.96 µM (inactive) | 0.637 µM (active) | 0.608 µM (active) | 0.466 µM (active) | 17.8 µM (inactive) | 2.28 µM (inactive) | 0.335 µM (active) | 0.574 µM (active) | 5.56 µM (inactive)
COc1ccc2nc3ccccc3c(NCCN(C)CCCl)c2c1 | 0.592 µM (active) | 0.861 µM (active) | 0.514 µM (active) | 1.51 µM (inactive) | 0.622 µM (active) | 0.984 µM (active) | 0.247 µM (active) | 0.608 µM (active) | 0.377 µM (active) | 1.64 µM (inactive) | 0.515 | 0.431 µM (active) | 0.541 µM (active) | 0.21 µM (active) | 1.12 µM (active) |  | 0.9 µM (active) | 0.587 µM (active) | 0.647 µM (active) | 0.344 µM (active)
C=C1COC(O)(C2OCOC(C3CC(=O)NC(=O)C3)C2O)C1C (configuration not stated) | 0.00404 µM (active) | 0.00384 µM (active) | < 0.01 µM (active) | 0.00689 µM (active) | 0.00244 µM (active) | 0.0018 µM (active) | 0.00269 µM (active) | 0.00619 µM (active) | 0.00278 µM (active) | 0.00802 µM (active) | 0.00478 | 0.00512 µM (active) | 0.00341 µM (active) | 0.00512 µM (active) | 0.00361 µM (active) | 0.00629 µM (active) | 0.00565 µM (active) | 0.00268 µM (active) | 0.017 µM (active) | 0.0034 µM (active)
C=C(c1nc2ccc(Cl)cc2[nH]c1=O)C(O)c1ccc(C(O)C(=O)c2nc3ccc(Cl)cc3[nH]c2=O)cc1 (configuration not stated) | > 100 µM (inactive) | > 100 µM (inactive) | > 100 µM (inactive) | > 100 µM (inactive) | > 100 µM (inactive) | > 100 µM (inactive) | 9.06 µM (inactive) | > 100 µM (inactive) | > 100 µM (inactive) | > 100 µM (inactive) | 74.5 | > 100 µM (inactive) | > 100 µM (inactive) | > 100 µM (inactive) | > 100 µM (inactive) | > 100 µM (inactive) | > 100 µM (inactive) | > 100 µM (inactive) | > 100 µM (inactive) | > 100 µM (inactive)
O=P(c1ccccc1)(c1ccccc1)C1CC=C2CCCCCC2C1 (configuration not stated) | 28.8 µM (inactive) | 36.9 µM (inactive) | 33 µM (inactive) | 37.9 µM (inactive) | 11 µM (inactive) | 35.9 µM (inactive) | 16.1 µM (inactive) | 26.3 µM (inactive) | 37.2 µM (inactive) | 25 µM (inactive) | 37.2 | 31 µM (inactive) | 67 µM (inactive) | 22.6 µM (inactive) |  |  |  |  |  | 
